Data reported in patent US5068325A, “4,5,7,8-tetrahydro-6H-thiazolo[5,4-d]azepines, their preparation and their use as pharmaceutical compositions” (priority 1988, dated 1991).

Tests used:
MPTP monkeys = test: post-synaptic dopaminergic activity in MPTP monkeys; type: in vivo, rhesus monkey
Source text: 6. Determining the post-synaptic dopaminergic activity in MPTP monkeys (Modified Method of R. S. Burns et al., Proc. Natl. Acad. Sci. 80. 4546 (1983))
The neurotoxin 1-methyl-4-phenyl-1,2,3,6- tetrahydro-pyridine (MPTP) produces in humans and monkeys an irreversible syndrome which in its clinical, pathological, biochemical and pharmacological appearance is very similar to idiopathic Parkinson's disease (Markey et al., Nature 311, 464 (1984)). The reason for this similarity is that MPTP selectively destroys those dopaminergic nerve cells in the substantia nigra of the brain which are also lost by degenerative processes in Parkinson's disease. There is even some discussion that MPTP or an MPTP-like substance might be formed in the body and trigger Parkinson's disease (S. H. Snyder, Nature 311, 514 (1984)). Possibly because of the specific MPTP metabolism, the clinical formation of the MPTP-induced Parkinson syndrome has hitherto been detected only in humans and monkeys. The MPTP model produced in the rhesus monkey is therefore exceptionally suitable for testing the activity of post-synaptically acting dopamine agonists. For this purpose, rhesus monkeys were given MPTP in overall doses of up to about 6 mg/kg of body weight, until the following symptoms appeared: The animals were akinetic and unable to take water and food.
It is clear that with the compounds according to the invention there is no sedative effect or ataxia at a dosage which is several times the MED, which can be put down to the absence of a corresponding activity mediated by the α2- receptors.

alpha-2 receptors = biological target: T1, alpha-2 receptors (Rattus norvegicus, UniProt P22909); test: affinity for alpha-2 receptors by displacement experiments with [3H]-clonidine (rat cortex membranes); type: binding; conditions: read-out: α2-IC50
T1 sequence (P22909 1-465): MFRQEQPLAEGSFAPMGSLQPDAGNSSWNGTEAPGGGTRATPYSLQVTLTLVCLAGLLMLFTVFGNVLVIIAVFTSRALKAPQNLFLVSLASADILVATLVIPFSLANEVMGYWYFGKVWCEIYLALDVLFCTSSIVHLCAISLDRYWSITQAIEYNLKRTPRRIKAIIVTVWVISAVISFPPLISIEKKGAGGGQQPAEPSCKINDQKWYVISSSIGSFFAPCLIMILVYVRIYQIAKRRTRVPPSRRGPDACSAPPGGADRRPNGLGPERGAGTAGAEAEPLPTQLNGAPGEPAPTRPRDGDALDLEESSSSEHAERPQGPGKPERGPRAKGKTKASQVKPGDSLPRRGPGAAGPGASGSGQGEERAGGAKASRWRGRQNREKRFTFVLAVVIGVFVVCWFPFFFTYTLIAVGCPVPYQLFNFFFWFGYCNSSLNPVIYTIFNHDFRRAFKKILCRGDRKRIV
Method: Determination of the affinity for alpha-2 receptors by displacement experiments with [^3 H] clonidine (Modified Method of B. Jarrott, W. J. Louis and R. J. Summers, Biochem. Pharmacol. 27, 141 (1979))
A male rat (Chbb:Thom strain weighing about 200 g) was killed by a blow to the back of the neck. The brain was removed and the cortex dissected out, weighed and homogenised in 25 volumes of tris buffer (50 mM tris- HCl, pH 7.50) for 30 seconds in an Ultra-Turrax at maximum speed, followed by 10° Cycles in a Potter- Elvehjem at 1400 rpm. The homogenised material was combined with tris buffer to obtain a homogenate dilution of 1:50 (based on the weight of the cortex).
1 ml aliquots of the membrane preparation were incubated for three hours at ambient temperature with 1 ml of a solution of 1 nM of [^3 H]-clonidine (2.2 TBq/mmol, Messrs. DuPont NEN) and with increasing concentrations of the test substance (10^-11 to 10^-4 M). Incubation was ended by the addition of 5 ml of ice-cold tris buffer and filtration through Whatman GF/B filters. The filters were washed twice, each time with 5 ml of ice cold buffer. The radioactivity of the filters was determined by liquid scintillation measurement in Instagel(R) (Messrs. Canberra Packard). The non-specific binding was determined in the presence of 10^-5 M of oxymetazoline (Sigma Chemical Co.).

dopamine D2-receptors = dopamine D2-receptors (Rattus norvegicus, UniProt P61169); test: affinity for dopamine D2-receptors by displacement experiments with [3H]-spiperone (rat striatum membranes); type: binding
Method: 1Determining the affinity for dopamine D2-receptors by displacement experiments with [^3 H]-spiperone (Modified Method of W. Billard et al., Life Sci. 35, 1885 (1984) and D. J. de Vries and P. M. Beart, Eur. J. Pharmacol. 109, 417 (1985))
Male rats (of the Chbb:Thom strain weighing about 200 g) were killed by a blow to the back of the neck. The brains were removed and dissected on ice. The striata were dissected out, weighed and homogenised in 25 volumes of tris buffer (50 mM tris-HCl, 1 mM EDTA, 5 mM MgCl2 and 1 mM ascorbic acid) for 30 seconds in an Ultra-Turrax at maximum speed, followed by 10 cycles in a Potter-Elvehjem at 1400 rpm. The pellet obtained after centrifuging at 50,000×g at 4° C. for 15 minutes was again taken up in 25 ml of tris buffer and centrifuged under the above conditions. The supernatant was discarded and the pellet obtained was incubated in 25 ml of tris buffer at 37° C. for 30 minutes and then centrifuged again at 50,000×g at 4° C. for 15 minutes. Finally, the pellet obtained was mixed with tris buffer to obtain a homogenate dilution of 1:500 (based on the weight of the striata).
1 ml aliquots of the membrane preparation were incubated with 1 ml of a solution of 0.25 nM [^3 H]-spiperone ([…], Messrs. DuPont NEN) and at increasing concentrations of the test substance (10^-11 to 10^-4 M) at ambient temperature for one hour. Incubation was ended by the addition of 5 ml of ice cold tris buffer and filtration using Whatman GF/B filters. The filters were washed twice, each time with 5 ml of ice cold buffer. The radioactivity of the filters was determined by liquid scintillation measurement in Instagel^(R) (Messrs. Canberra Packard). Non-specific binding was determined in the presence of 10^-5 M haloperidol (Sigma Chemical Co.).
Displacement curves were obtained from the data using the TOPFIT programming package (G. Heinzel in "Pharmacokinetics During Drug Development: Data Analysis and Evaluation Techniques", G. Bozler and J. M. van Rossum Eds., G. Fischer Verlag, Stuttgart 1982, 207).

[1] = test system: hypersensitive dopamine receptor; test: motility triggering in the mouse treated 24 hours earlier with reserpine; type: in vivo; conditions: Mus musculus, sc; reserpine-treated mice, s.c.; read-out: DLi50 (dosage resulting in 50 running pulses every 5 minutes)
Method: This test determines predominantly agonistic effects on the hypersensitive dopamine receptor.
Male mice are treated 24 hours before the experiment with 5 mg/kg i.p. reserpine. The animals are kept at 25°-30° C. and treated three times with 2 ml of a 5% glucose solution in tyrode s.c. (the first time when the reserpine is given, the second time in the evening of the pre-treatment day and the third time on the morning of the test day).
[…] (The injection volume is usually 0.1 ml/10 g of body weight). 30 minutes later the groups of animals are placed in the observation cages (measuring 42 x 24 x 8 cm) and fitted with an infrared lightbeam in order to measure their activity. The value measured is the frequency with which a group of 6 mice pass through the infra-red beam within 5 minutes ("running pulses/5 minutes"; mean at n=3; mean±s.e.m. at n=6).
3 to 6 groups are tested for each substance.

Sequence of dopamine D2-receptors (P61169 whole entry): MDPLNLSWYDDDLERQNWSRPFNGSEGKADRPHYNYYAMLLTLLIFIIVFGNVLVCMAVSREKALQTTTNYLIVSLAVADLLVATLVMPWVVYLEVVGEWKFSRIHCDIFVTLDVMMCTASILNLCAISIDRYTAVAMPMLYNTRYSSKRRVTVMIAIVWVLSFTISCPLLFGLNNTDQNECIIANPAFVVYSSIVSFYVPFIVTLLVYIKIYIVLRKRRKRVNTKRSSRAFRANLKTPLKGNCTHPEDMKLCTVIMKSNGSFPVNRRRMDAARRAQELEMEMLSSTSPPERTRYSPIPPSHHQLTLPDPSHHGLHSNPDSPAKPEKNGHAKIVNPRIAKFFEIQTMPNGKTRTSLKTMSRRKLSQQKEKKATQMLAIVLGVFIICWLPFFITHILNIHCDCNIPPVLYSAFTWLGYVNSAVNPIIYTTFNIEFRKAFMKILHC

Row | Structure (SMILES) | Duration of activity (MPTP monkeys; 0.05 mg/kg i.m. (MED)) [h] | Side effects (MPTP monkeys; 0.05 mg/kg i.m. (MED)) | Duration of activity (MPTP monkeys; 3.00 mg/kg i.m.) [h] | minimal effective dose (MPTP monkeys; Primates, in Macaca mulatta, im, rhesus monkeys, i.m., read-out: minimum dose (MED) required to alleviate the Parkinson's symptoms) [mg/kg] | IC50 (alpha-2 receptors) [nM] | Ki (dopamine D2-receptors; [3H]-spiperone, high-affinity form of the dopamine receptor) [nM] | α2-IC50 / D2-Ki (dopamine D2-receptors; relative affinity for dopamine-D2 receptors compared with α2-adrenoceptors, the higher, the higher the D2/α2 selectivity) | ED (50 running pulses/5 min) [1] [mg/kg]
1 | Nc1nc2c(s1)CCN(CC=Cc1ccccn1)CC2 [Example 11a, 2-Amino-6-(3-(2-pyridyl)allyl)-4,5,7,8-tetrahydro-6H-thiazolo[5,4-d]azepin] | 1.5 to 2 | none | 5 | 0.05 | 760 | 4.3 | 176 | 0.35
2 | Nc1nc2c(s1)CCN(CC=Cc1ccco1)CC2 [Example 8, 2-Amino-6-(3-(2-furyl)allyl)-4,5,7,8-tetrahydro-6H-thiazolo[5,4-d]azepine] |  |  |  |  |  |  |  | 0.34
